Assay results published in PMC7866087, “Evaluation of Computationally Designed Peptides against TWEAK, a Cytokine of the Tumour Necrosis Factor Ligand Family” (International Journal of Molecular Sciences, 2021).
“And” between values parts separate entries of the source, which are not always exact repeats. Identical values can stand only once.

Test system: TWEAK-Fn14 signalling pathway, BRV5 cells
Test: Cell-based screening of individual peptides, gene expression microarray in TWEAK-stimulated BRV5 cells
Set-up: species or system human
Conditions: 6 h; for regulation of probe genes by individual peptides: BRV5 + TWEAK 25 ng/mL, peptides 450 µM; for BIRC2 mRNA expression (normalized to NARS2) / HSP90B1 mRNA expression (normalized to NARS2) / IL6 mRNA expression (normalized to NARS2) / JUN mRNA expression (normalized to NARS2) / MAP4K4 mRNA expression (normalized to NARS2) / MAPK14 mRNA expression (normalized to NARS2) / NFKB2 mRNA expression (normalized to NARS2) / TNFRSF12A mRNA expression (normalized to NARS2) / TRAF2 mRNA expression (normalized to NARS2) / BIRC2 expression Z-Score / HSP90B1 expression Z-Score / IL6 expression Z-Score / JUN expression Z-Score / MAP4K4 expression Z-Score / MAPK14 expression Z-Score / NFKB2 expression Z-Score / TNFRSF12A expression Z-Score / TRAF2 expression Z-Score: individual peptides, BRV5 + TWEAK; for BIRC2 mRNA expression (normalized to NARS2) / HSP90B1 mRNA expression (normalized to NARS2) / IL6 mRNA expression (normalized to NARS2) / JUN mRNA expression (normalized to NARS2) / MAP4K4 mRNA expression (normalized to NARS2) / MAPK14 mRNA expression (normalized to NARS2) / NFKB2 mRNA expression (normalized to NARS2) / TNFRSF12A mRNA expression (normalized to NARS2) / TRAF2 mRNA expression (normalized to NARS2): 450 µM; for BIRC2 expression Z-Score / HSP90B1 expression Z-Score / IL6 expression Z-Score / JUN expression Z-Score / MAP4K4 expression Z-Score / MAPK14 expression Z-Score / NFKB2 expression Z-Score / TNFRSF12A expression Z-Score / TRAF2 expression Z-Score: normalized to NARS2
Source text: Pool 1 and 5 were therefore deconstructed to assess the effect of individual peptides and their activity on same cell-based screening. Pools 1 and 5 were composed of peptides 45, 46, 42, 3, 49, 11, and 13; and of peptides 1, 9, 30, 35, 41, 43, 7, and 14, respectively. As before, and shown in Figure 4B, the level of expression of probe genes on TWEAK-stimulated (T) BRV5 cells is overall higher than on non-stimulated (NT) one. […] The structural model of peptides 43, 30, 35 and 49 bound to TWEAK can be seen in Figure 5 and Supplementary Materials Figures S4–S6, respectively.
Three different cell lines were used in this study: BRV5, MDA-MB 435 (435-P), and HT29. The BRV5 is a highly metastatic brain cell line, obtained in one of our laboratories by primary culture from a brain of a nude mouse inoculated with human 435-Br1 brain metastatic cells, as previously described and used as a model to test the peptides in cell cultures. […] The triple negative 435-P cell line is a useful human breast cancer model that expresses both epithelial and melanocytic markers, and was included as the parental cell from which 435-Br1 metastatic variant was initially originated (both cell lines kindly provided by Dr Fabra at IDIBELL Institute, Hospitalet de Llobregat, Spain). Finally, HT29 human colon carcinoma cells obtained from the European Type Culture Collection (ECACC 91072201) were used as a positive control of TWEAK dependent Fn14 over-expressing cells to evaluate TWEAK-Fn14 axis of brain metastatic variants.
Appropriate cell culture conditions were established as the controls needed in the expression of genes with and without peptides and with and without TWEAK activation, both as pools and individually (see Supplementary Materials Figure S2). The protocol started with the seeding of 125,000 cells/well in 500 µL of culture media supplemented with 10% fetal bovine serum (CM+FBS10%) in 24-well dishes for 24 h before removing FBS (CM-FBS). After overnight starvation in CM-FBS culture, different peptide treatment conditions (at final concentration of 450 µM) were established in the presence or absence of TWEAK (25 ng/mL final concentration) (Peprotech EC, Ltd., London, UK). Some cells were treated with peptides at a single, unique, initial dose (time 0) while other were treated with repeated doses to account for the effect cell-culture degradation. These include a repeated treatment every hour (i.e., […]), every two hours (time 0, 2, and 4) and every three hours (time 0 and 3)—see Supplementary Materials Figure S2 for diagrammatic depiction. At time 6 (after six hours) cells were lysed and RNA extracted for transcriptomic analyses (see next). Cell were culture for six hours as this was the time needed to achieve the highest upregulation of the TWEAK-Fn14 axis upon TWEAK treatment as shown in previous time-course RT-PCR experiments (see Figure 2).
RNA from cells was extracted 6 h after treatments by direct lysis on the well. The RNeasy Micro kit (Qiagen, Hilden, Germany) was used to isolate total RNA from cell lysate following manufacturer’s protocols including an additional step of digestion with DNase I (Qiagen, Hilden, Germany). Total RNA concentration was measured in a NanoDrop 1000 spectrophotometer (Thermo Scientific, Waltham, MA, USA). The RNA extracted from treated and untreated cells (see above) was used as a proxy for gene expression.
The quantitative RT-PCR was performed using Fluidigm Dynamic Array FlexSix array with the specific primers for gene expression (Delta Genes Assays, Wet lab tested on Dynamic Array IFC) designed to RefSeq for detection by pPCR EvaGreen assay (Dynamic Array FlexSix, Fluidigm Corporation). Each Flex Six IFC has a total of six independent partitions. Each partition has a 12 × 12 format (12 assay inlets and 12 sample inlets) and will be run independently as a separate experimental run. […]

| Substance | BIRC2 mRNA expression (normalized to NARS2) (mean of replicate columns) | HSP90B1 mRNA expression (normalized to NARS2) (mean of replicate columns) | IL6 mRNA expression (normalized to NARS2) (mean of replicate columns) | JUN mRNA expression (normalized to NARS2) (mean of replicate columns) | MAP4K4 mRNA expression (normalized to NARS2) (mean of replicate columns) | MAPK14 mRNA expression (normalized to NARS2) (mean of replicate columns) | NFKB2 mRNA expression (normalized to NARS2) (mean of replicate columns) | TNFRSF12A mRNA expression (normalized to NARS2) (mean of replicate columns) | TRAF2 mRNA expression (normalized to NARS2) (mean of replicate columns) | BIRC2 mRNA expression (normalized to NARS2) (replicate column 1) | HSP90B1 mRNA expression (normalized to NARS2) (replicate column 1) | IL6 mRNA expression (normalized to NARS2) (replicate column 1) | JUN mRNA expression (normalized to NARS2) (replicate column 1) | MAP4K4 mRNA expression (normalized to NARS2) (replicate column 1) | MAPK14 mRNA expression (normalized to NARS2) (replicate column 1) | NFKB2 mRNA expression (normalized to NARS2) (replicate column 1) | TNFRSF12A mRNA expression (normalized to NARS2) (replicate column 1) | TRAF2 mRNA expression (normalized to NARS2) (replicate column 1) | BIRC2 mRNA expression (normalized to NARS2) (replicate column 2) | HSP90B1 mRNA expression (normalized to NARS2) (replicate column 2) | other results |
| --- | --- | --- | --- | --- | --- | --- | --- | --- | --- | --- | --- | --- | --- | --- | --- | --- | --- | --- | --- | --- | --- |
| 13: YSGYFGGFY [Peptide 13] | 0.4307 | 2.183 | 0.005226 | 0.4257 | 0.2531 | 0.2388 | 0.05228 | 0.02853 | 0.02474 | 0.4177 | 2.2352 | 0.005457 | 0.419 | 0.2593 | 0.2431 | 0.05087 | 0.02856 | 0.02503 | 0.4436 | 2.131 | regulation of probe genes by individual peptides: to some extent, 13 induced a higher level of expression of the gene; IL6 mRNA expression (normalized to NARS2) (replicate column 2): 0.004995; JUN mRNA expression (normalized to NARS2) (replicate column 2): 0.4325; MAP4K4 mRNA expression (normalized to NARS2) (replicate column 2): 0.2468; MAPK14 mRNA expression (normalized to NARS2) (replicate column 2): 0.2344; NFKB2 mRNA expression (normalized to NARS2) (replicate column 2): 0.05368; TNFRSF12A mRNA expression (normalized to NARS2) (replicate column 2): 0.0285; TRAF2 mRNA expression (normalized to NARS2) (replicate column 2): 0.02446; BIRC2 expression Z-Score (listed as P13): -0.8852; HSP90B1 expression Z-Score (listed as P13): -0.101; IL6 expression Z-Score (listed as P13): 2.8881 and 2.888; JUN expression Z-Score (listed as P13): 3.7769 and 3.777; MAP4K4 expression Z-Score (listed as P13): 1.699; MAPK14 expression Z-Score (listed as P13): 0.6701; NFKB2 expression Z-Score (listed as P13): 1.124; TNFRSF12A expression Z-Score (listed as P13): 0.91; TRAF2 expression Z-Score (listed as P13): 0.255 |
| 46: TGYAENV [Peptide 46] | 0.5415 | 2.314 | 0.00187 | 0.08801 | 0.2105 | 0.2302 | 0.05417 | 0.01829 | 0.01616 | 0.5372 | 2.32 | 0.00168 | 0.08305 | 0.1965 | 0.2456 | 0.05593 | 0.0189 | 0.01641 | 0.5458 | 2.3087 | IL6 mRNA expression (normalized to NARS2) (replicate column 2): 0.002059; JUN mRNA expression (normalized to NARS2) (replicate column 2): 0.09296; MAP4K4 mRNA expression (normalized to NARS2) (replicate column 2): 0.2245; MAPK14 mRNA expression (normalized to NARS2) (replicate column 2): 0.2147; NFKB2 mRNA expression (normalized to NARS2) (replicate column 2): 0.05241; TNFRSF12A mRNA expression (normalized to NARS2) (replicate column 2): 0.01767; TRAF2 mRNA expression (normalized to NARS2) (replicate column 2): 0.01592; BIRC2 expression Z-Score (listed as P46): -0.118; HSP90B1 expression Z-Score (listed as P46): 0.1322; IL6 expression Z-Score (listed as P46): -0.0166 and -0.01658; JUN expression Z-Score (listed as P46): -0.1078; MAP4K4 expression Z-Score (listed as P46): 0.6365; MAPK14 expression Z-Score (listed as P46): 0.5199; NFKB2 expression Z-Score (listed as P46): 1.3042 and 1.304; TNFRSF12A expression Z-Score (listed as P46): -0.2543; TRAF2 expression Z-Score (listed as P46): -0.1604 |
| TKGGGTADA [Peptide 3] | 0.7197 | 3.909 | 0.003239 | 0.1441 | 0.2389 | 0.2205 | 0.05335 | 0.03024 | 0.009427 | 0.6856 | 3.773 | 0.004016 | 0.1498 | 0.2356 | 0.2165 | 0.05516 | 0.03211 | 0.009734 | 0.7537 | 4.045 | regulation of probe genes by individual peptides: induced a higher level of expression of the gene; IL6 mRNA expression (normalized to NARS2) (replicate column 2): 0.002462; JUN mRNA expression (normalized to NARS2) (replicate column 2): 0.1383; MAP4K4 mRNA expression (normalized to NARS2) (replicate column 2): 0.2421; MAPK14 mRNA expression (normalized to NARS2) (replicate column 2): 0.2245; NFKB2 mRNA expression (normalized to NARS2) (replicate column 2): 0.05153; TNFRSF12A mRNA expression (normalized to NARS2) (replicate column 2): 0.02838; TRAF2 mRNA expression (normalized to NARS2) (replicate column 2): 0.00912; BIRC2 expression Z-Score (listed as P3): 1.1157 and 1.116; HSP90B1 expression Z-Score (listed as P3): 2.9702 and 2.97; IL6 expression Z-Score (listed as P3): 1.1687 and 1.169; JUN expression Z-Score (listed as P3): 0.5369; MAP4K4 expression Z-Score (listed as P3): 1.3444 and 1.344; MAPK14 expression Z-Score (listed as P3): 0.3511; NFKB2 expression Z-Score (listed as P3): 1.2258 and 1.226; TNFRSF12A expression Z-Score (listed as P3): 1.1044 and 1.104; TRAF2 expression Z-Score (listed as P3): -0.4866 |
| 11: SGVAYQETT [Peptide 11] | 0.6438 | 2.54 | 0.001558 | 0.1006 | 0.1986 | 0.2184 | 0.047 | 0.01869 | 0.01037 | 0.6157 | 2.376 | 0.001178 | 0.09818 | 0.2001 | 0.2179 | 0.04834 | 0.01871 | 0.01036 | 0.6719 | 2.704 | regulation of probe genes by individual peptides: induced a higher level of expression of the gene; IL6 mRNA expression (normalized to NARS2) (replicate column 2): 0.001938; JUN mRNA expression (normalized to NARS2) (replicate column 2): 0.1029; MAP4K4 mRNA expression (normalized to NARS2) (replicate column 2): 0.1972; MAPK14 mRNA expression (normalized to NARS2) (replicate column 2): 0.219; NFKB2 mRNA expression (normalized to NARS2) (replicate column 2): 0.04567; TNFRSF12A mRNA expression (normalized to NARS2) (replicate column 2): 0.01867; TRAF2 mRNA expression (normalized to NARS2) (replicate column 2): 0.01038; BIRC2 expression Z-Score (listed as P11): 0.5906; HSP90B1 expression Z-Score (listed as P11): 0.5337; IL6 expression Z-Score (listed as P11): -0.2862; JUN expression Z-Score (listed as P11): 0.0366 and 0.03662; MAP4K4 expression Z-Score (listed as P11): 0.3403; MAPK14 expression Z-Score (listed as P11): 0.3151; NFKB2 expression Z-Score (listed as P11): 0.622; TNFRSF12A expression Z-Score (listed as P11): -0.2085; TRAF2 expression Z-Score (listed as P11): -0.4411 |
